# Experimental data taken from patent US20170319562A1, “Compositions and Methods for Extended Therapy with Aminopyridines” (Acorda Therapeutics, Inc., priority 2009, published 2017).
# Experiments:
# [1] = Single oral dose of 14C-labeled 4-aminopyridine (1 mg/kg) in dogs; assay type: in vivo; settings: dog, plasma, 1 mg/kg oral
# Procedure: (§1) Studies were performed in rats and dogs using “C-labeled 4-aminopyridine (1 mg/kg) given as a single oral gavage dose in solution.
# [2] = Single oral dose of 14C-labeled 4-aminopyridine (1 mg/kg) in rats; settings: for tissue-to-blood ratio: oral dose; for AUC / Cmax / Tmax / half-life: rat, plasma, po, 1 mg/kg
# Procedure: as §1
# In a single-dose study, rats were administered “C-labeled 4-aminopyridine (1 mg/kg) p.o. Three animals per time point were sacrificed 1, 3, 8, and 24 hours post-dose. Blood was collected and tissues were excised for determination of radioactivity.
structure (smiles),measurement,setting,value
Nc1ccncc1 [^14C-4-Aminopyridine],AUC,"[1]; female, females",1920 ± 150 ng·h/mL
same,Cmax,"[1]; female, females",635 ± 103 ng/g
same,Tmax,"[1]; female, females",0.8 ± 0.3 h
same,half-life,"[1]; female, females",1.8 ± 0.04 h
same,AUC,"[1]; male, males",2030 ± 406 ng·h/mL
same,Cmax,"[1]; male, males",574 ± 123 ng/g
same,Tmax,"[1]; male, males",1 h
same,half-life,"[1]; male, males",2.1 ± 0.14 h
same,"radioactivity in tissue, percentage of the dose","[2]; blood, one hour post-dose",0.7%
same,"radioactivity in tissue, percentage of the dose","[2]; carcass, 3 hours post-dose",15.4%
same,"radioactivity in tissue, percentage of the dose","[2]; carcass, one hour post-dose",51%
same,tissue-to-blood ratio,[2]; cerebellum,1.48
same,tissue-to-blood ratio,[2]; cerebrum,3.07
same,AUC,[2]; female,506 ± 63.3 ng·h/mL
same,Cmax,[2]; female,168 ± 15.7 ng/g
same,Tmax,[2]; female,0.5 h
same,half-life,[2]; female,1.4 ± 0.17 h
same,"radioactivity in tissue, percentage of the dose","[2]; kidney, one hour post-dose",1.6%
same,"radioactivity in tissue, percentage of the dose","[2]; liver, one hour post-dose",2.6%
same,AUC,[2]; male,498 ± 17.6 ng·h/mL
same,Cmax,[2]; male,189 ± 20.2 ng/g
same,Tmax,[2]; male,1 h
same,half-life,[2]; male,1.1 ± 0.04 h
same,dose accounted for in total,[2]; one hour post-dose,58.3%
